According to ChEMBL document CHEMBL1144527 (Bioorg Med Chem, 2007):

Assays:
[1] = target: T1, Prostaglandin G/H synthase 2 (Ovis aries, UniProt P79208); test: Inhibition of ovine COX2 by enzyme immunoassay
T1 sequence (P79208 whole entry): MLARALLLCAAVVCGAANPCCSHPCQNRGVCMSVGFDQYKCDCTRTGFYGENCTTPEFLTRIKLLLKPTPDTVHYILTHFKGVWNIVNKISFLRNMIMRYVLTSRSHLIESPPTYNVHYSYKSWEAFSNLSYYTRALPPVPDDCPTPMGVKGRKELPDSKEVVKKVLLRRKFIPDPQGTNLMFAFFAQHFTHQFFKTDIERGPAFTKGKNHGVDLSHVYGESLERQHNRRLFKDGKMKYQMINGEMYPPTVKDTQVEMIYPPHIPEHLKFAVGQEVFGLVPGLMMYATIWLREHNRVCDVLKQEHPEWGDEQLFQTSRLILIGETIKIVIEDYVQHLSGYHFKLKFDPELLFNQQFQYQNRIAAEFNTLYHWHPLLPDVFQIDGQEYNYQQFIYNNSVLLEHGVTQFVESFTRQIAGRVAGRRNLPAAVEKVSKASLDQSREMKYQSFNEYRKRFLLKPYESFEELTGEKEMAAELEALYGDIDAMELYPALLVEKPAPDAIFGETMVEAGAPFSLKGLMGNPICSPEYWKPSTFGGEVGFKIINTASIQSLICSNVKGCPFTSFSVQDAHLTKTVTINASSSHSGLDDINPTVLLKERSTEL

[2] = organism: Ovis aries; test: Selectivity index, ratio of IC50 for ovine COX1 to IC50 for ovine COX2
[3] = target: T2, Prostaglandin G/H synthase 1 (Ovis aries, UniProt P05979); test: Inhibition of ovine COX1 by enzyme immunoassay
T2 sequence (P05979 whole entry): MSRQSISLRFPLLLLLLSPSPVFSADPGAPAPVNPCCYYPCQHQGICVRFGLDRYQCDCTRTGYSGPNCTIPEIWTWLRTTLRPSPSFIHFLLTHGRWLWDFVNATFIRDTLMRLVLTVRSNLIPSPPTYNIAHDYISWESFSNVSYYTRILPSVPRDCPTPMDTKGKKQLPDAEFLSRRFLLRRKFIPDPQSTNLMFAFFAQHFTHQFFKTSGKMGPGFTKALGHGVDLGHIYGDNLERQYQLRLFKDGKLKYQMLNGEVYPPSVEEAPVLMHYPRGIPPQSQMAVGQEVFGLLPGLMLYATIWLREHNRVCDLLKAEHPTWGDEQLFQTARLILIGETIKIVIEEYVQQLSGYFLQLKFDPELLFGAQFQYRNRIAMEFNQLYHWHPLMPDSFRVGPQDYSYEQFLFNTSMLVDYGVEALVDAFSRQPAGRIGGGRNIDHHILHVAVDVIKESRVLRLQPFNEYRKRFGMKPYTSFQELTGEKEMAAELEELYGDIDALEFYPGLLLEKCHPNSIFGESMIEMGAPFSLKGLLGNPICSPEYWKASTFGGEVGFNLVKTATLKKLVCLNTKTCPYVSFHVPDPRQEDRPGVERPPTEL

CS(=O)(=O)Nc1ccc(C2=C(c3ccc(Cl)cc3)C(=O)OC2)cc1
IC50 [1]: 0.8 µM | COX1/COX2 IC50 selectivity index [2]: 39.4 | IC50 [3]: 31.5 µM

COc1ccc(C2=C(c3ccc(NS(C)(=O)=O)cc3)COC2=O)cc1
IC50 [1]: 31.5 µM | COX1/COX2 IC50 selectivity index [2]: > 31 | IC50 [3]: > 100 µM

CS(=O)(=O)Nc1ccc(C2=C(c3ccc(Br)cc3)C(=O)OC2)cc1
IC50 [1]: 3.2 µM | COX1/COX2 IC50 selectivity index [2]: 11.1 | IC50 [3]: 35.5 µM

Cc1ccc(C2=C(c3ccc(NS(C)(=O)=O)cc3)COC2=O)cc1
IC50 [1]: 0.9 µM | COX1/COX2 IC50 selectivity index [2]: > 111 | IC50 [3]: > 100 µM

CS(=O)(=O)Nc1ccc(C2=C(c3ccccc3)C(=O)OC2)cc1
IC50 [1]: 1.7 µM | COX1/COX2 IC50 selectivity index [2]: 18.5 | IC50 [3]: 31.6 µM

CS(=O)(=O)Nc1ccc(C2=C(c3ccc(F)cc3)C(=O)OC2)cc1
IC50 [1]: 3.2 µM | COX1/COX2 IC50 selectivity index [2]: 3.1 | IC50 [3]: 10 µM
